Laboratory results as given in patent US11060087B2, “Synthetic promoters for high throughput screening and gene modulation” (The Regents of the University of California, priority 2016, dated 2021).

Assays:
islet neoplasia (INeo) = assay: Potentiation of the INeo response to somatostatin analogues; settings: preliminary data
From the text: The following are key findings in this field: 1.

BIRC5 = assay: High-throughput screening of FDA-approved drug library, BIRC5 synthetic promoter-driven luciferase; type: cell-based, human; settings: BIRC5SP-Luc2-Puro MiaPaca2 cells, 48 hours after drug administration, Bright-Glo / CellTiter-Glo
From the text: Differentially over-expressed BIRC5 was validated using RT-PCR in rPDAC versus matching non-tumor pancreas (FIG. 8A), as well as western blot assay of ATCC™ PDAC cell lines (FIG. 8B). These preliminary data support the WGCNA that BIRC5 is an actionable gene (AG) for rPDAC. A powerful synthetic promoter for BIRC5, BIRC5-SP (BL-2), was generated (FIG. 8C) and used for BIRC5^SP-Luc2-Puro stable transfection into MiaPaca2 cells, which in turn were used for high-throughput small molecule screening (HTS) of the FDA-approved drug library. BIRC5^SP-Luc2-Puro PDAC cells were plated on 384-well plates and 2100 FDA-approved drugs were applied to cells with a pin plate automatic system. Luciferase expression was measured in a plate reader 48 hours after drug administration using Bright-Glo™. Cell viability of treated cells was measured using CellTiter-Glo™. BIRC5-luciferase signal read outs were normalized using cell viability measurements. Inhibitory drugs include daunorubicin and paclitaxel (Kusukawa N, Ishida H, Tanase K, Ito H, Aoki Y, Ooyama N, et al. [Successful treatment with docetaxel and prednisolone for paxlitaxel and carboplatin-resistant prostate cancer]. Hinyokika kiyo Acta urologica Japonica. 2013; 59(5):301-4. PubMed PMID: 23719139), as well as other novel rPDAC drugs such as bergenin, simvastatin, fluvastatin (Garwood E R, Kumar A S, Baehner F L, Moore D H, Au A, Hylton N, et al. Fluvastatin reduces proliferation and increases apoptosis in women with high grade breast cancer. Breast cancer research and treatment. 2010; 119(1):137-44. doi: 10.1007/s10549-009-0507-x. PubMed PMID: 19728082; PubMed Central PMCID: PMC4087110; Bocci G, Fioravanti A, Orlandi P, Bernardini N, Collecchi P, Del Tacca M, et al. Fluvastatin synergistically enhances the antiproliferative effect of gemcitabine in human pancreatic cancer MIAPaCa-2 cells. British journal of cancer. 2005; 93(3):319-30. doi: 10.1038/sj.bjc.6602720. […]

[1] = system: pancreatic ductal adenocarcinoma cells (PANC-1, MIA PaPc2, AsPc-1, and Capan-2); assay: LAMC2 synthetic promoter luciferase reporter assay in PDAC cell lines; type: cell-based, human
From the text: FIG. 22 is a graph showing the relative luciferase activity of various synthetic LAMC2 promoters (i.e. LamS1, Lams1E4T, Lams2E4T, and Lams3E4T) and CMV in various cell lines, in accordance with one or more embodiments of the invention.
(§1) FIG. 23 is a graph showing the relative luciferase activity of an endogenous LAMC2 promoter (LAMC2-EP-Luc), a synthetic LAMC2 promoter (LAMC2-SP-Luc), and CMV in various cell lines, in accordance with one or more embodiments of the invention.
LAMC2 is a key oncologic regulator of apoptosis that is also over-expressed in most cancers, including pancreatic cancer, but not in normal cells. In one aspect of the invention, a LAMC2 synthetic promoter (BL-3) generated from the endogenous promoter of LAMC2 is provided that is 1000× more powerful than the endogenous promoter and also more powerful than the cytomegalovirus (CMV) promoter in stimulating gene expression. The promoter competes with the CMV promoter, which is non-specific for cancer. The BL-3 synthetic promoter is more highly specific for cancer, especially pancreatic cancer, since it is not expressed in normal cells, including islets of Langerhans, and therefore is less toxic. The technique to generate the LAMC2 synthetic promoter (BL-3) and its uses are similar to U.S. patent application Ser. No. 14/396,967, which describes a synthetic BL-1 promoter for the insulin gene. However, the synthetic BL-1 promoter is expressed in islets of Langerhans, which therefore can lead to […] and diabetes as a toxic effect.

[2] = system: human primary pancreatic epithelial cells (HPPE); assay: LAMC2 synthetic promoter luciferase reporter assay in normal cells; type: cell-based; settings: HPPE and human pancreatic duct epithelial cells (FIG. 23)
From the text: as §1

Molecule | effect on the INeo response to SAs (islet neoplasia (INeo)) | effect on BIRC5-luciferase signal normalized using cell viability (BIRC5) | further results
C[C@H](N)COC(=O)[C@H](CCCCN)NC(=O)Cc1c(-c2ccc3ccccc3c2)[nH]c2c1ccc1ccccc12 [SSTR5 small molecule agonist] | potentiates the INeo response to SAs |  | 
COc1c(O)cc2c(c1O)[C@@H]1O[C@H](CO)[C@@H](O)[C@H](O)[C@H]1OC2=O [bergenin] |  | Inhibitory | 
COc1cccc2c1C(=O)c1c(O)c3c(c(O)c1C2=O)C[C@@](O)(C(C)=O)C[C@@H]3O[C@H]1C[C@H](N)[C@H](O)[C@H](C)O1 [daunorubicin] |  | Inhibitory | 
CN(C)C(=N)N=C(N)N [metformin] | potentiate the INeo response to SAs |  | 
CC(=O)O[C@H]1C(=O)[C@@]2(C)[C@H]([C@H](OC(=O)c3ccccc3)[C@]3(O)C[C@H](OC(=O)[C@H](O)[C@@H](NC(=O)c4ccccc4)c4ccccc4)C(C)=C1C3(C)C)[C@]1(OC(C)=O)CO[C@@H]1C[C@@H]2O [paclitaxel] |  | Inhibitory | 
BL-3: LAMC2 synthetic promoter generated from the endogenous promoter of LAMC2 (LamS1, SEQ ID NO: 10/11) (nucleic acid, listed as Homo sapiens) DNA 1: CGGGCCAGGTGTGCGCCCTCCTCGCTGCGAGGGGGAGCGGGCGGCTGCGGGGAGCGATTTTCCAGCCCGGTTTGTGCTCTGTGTGTTTGTCTGCCTCTGGAGGGCTGGGTCCTCCTTATTCACAGGTGAGTCACACCCTGAAACACAGGCTCTCTTCCTGTCAGGACTGAGTCAGGTAGAAGAGTCGTGCGCCCTCCTCGCTGCGAGGGGGAGCGGGCGGCTGCGGGGAGCGATTTTCCAGCCCGGTTTGTGCTCTGTGTGTTTGTCTGCCTCTGGAGGGCTGGGTCCTCCTTATTCACAGGTGAGTCACACCCTGAAACACAGGCTCTCTTCCTGTCAGGACTGAGTCAGGTAGAAGAGTCGTGCGCCCTCCTCGCTGCGAGGGGGAGCGGGCGGCTGCGGGGAGCGATTTTCCAGCCCGGTTTGTGCTCTGTGTGTTTGTCTGCCTCTGGAGGGCTGGGTCCTCCTTATTCACAGGTGAGTCACACCCTGAAACACAGGCTCTCTTCCTGTCAGGACTGAGTCAGGTAGAAGAGTCAAGCTTATAAAACCACCTGATCAAGGAAAAGGAAGGCACAGCGGAGCGCAGAGTGAGAACCACCAACCGGAATTC DNA 2: CGGTCGGGCCAGGTGTGCGCCCTCCTCGCTGCGAGGGGGAGCGGGCGGCTGCGGGGAGCGATTTTCCAGCCCGGTTTGTGCTCTGTGTGTTTGTCTGCCTCTGGAGGGCTGGGTCCTCCTTATTCACAGGTGAGTCACACCCTGAAACACAGGCTCTCTTCCTGTCAGGACTGAGTCAGGTAGAAGAGTCGTGCGCCCTCCTCGCTGCGAGGGGGAGCGGGCGGCTGCGGGGAGCGATTTTCCAGCCCGGTTTGTGCTCTGTGTGTTTGTCTGCCTCTGGAGGGCTGGGTCCTCCTTATTCACAGGTGAGTCACACCCTGAAACACAGGCTCTCTTCCTGTCAGGACTGAGTCAGGTAGAAGAGTCGTGCGCCCTCCTCGCTGCGAGGGGGAGCGGGCGGCTGCGGGGAGCGATTTTCCAGCCCGGTTTGTGCTCTGTGTGTTTGTCTGCCTCTGGAGGGCTGGGTCCTCCTTATTCACAGGTGAGTCACACCCTGAAACACAGGCTCTCTTCCTGTCAGGACTGAGTCAGGTAGAAGAGTCAAGCTTATAAAACCACCTGATCAAGGAAAAGGAAGGCACAGCGGAGCGCAGAGTGAGAACCACCAACCG |  |  | more powerful than the endogenous promoter in stimulating gene expression ([1]; LAMC2 synthetic promoter vs endogenous LAMC2 promoter): 1000 ×; relative luciferase activity in comparison to endogenous LAMC2 promoter and CMV promoter ([1]; PANC-1, MIA PaPc2, AsPc-1, Capan-2 (FIG. 23)): greatest amount of activity; relative luciferase activity among synthetic LAMC2 promoters and CMV ([1]; various cell lines (FIG. 22)): greatest amount of luciferase activity; relative luciferase activity in normal pancreatic cells [2]: no activity
